Test results as given in US5912153A, “(1,3) β-glucan synthase genes and inducible inhibition of fungal growth using the antisense constructs derived therefrom” (priority 1995, dated 1999).

Target: Neurospora crassa wild type (1,3)β-glucan synthase (crude extract) (Neurospora crassa, UniProt Q7S0A7)
Experiment: (1,3)β-glucan synthase assay with quinate added to wild type crude extract
Format: biochemical
Details: concentrations as high as 4.0% of quinate added to the assay, data not shown
Experimental: To fresh hyphal pellets was added 20-mls of extraction buffer (25 mM HEPES (pH7.4); 10 mM NaH2 PO4; 600 mM glycerol; 10 mM NaF; 5 mM EDTA and 10 μM GTPy-S). At 4° C., hyphae were disrupted (5×30 second pulses with 2 minute coolings between each pulse) using a Bead Beater (Biospec Products, Bartlesville, Okla.) with 0.5 mm zirconium-silica beads. Lysates were centrifuged at 1000×g for 10 min at […], and used for the enzyme assays as will subsequently be described. Protein concentrations were determined by the method of Bradford using the Bio-Rad protein reagent (BioRad Labs, Hercules, Calif.). The yield was anywhere from 0.9-2.4 mg/ml crude extract depending on the transformant.
(1,3)β-Glucan synthase was assayed using modifications of a procedure previously described. To this end, in vitro reactions contained 50 μg α-amylase (type IIA; Sigma), 1 mM UDP-^14 C-glucose (~50,000 cpm/assay), and 20 μl crude extract in a final volume of 26 μl. Reactions were carried out in V-bottom 96-well microtiter plates (Dynatec Laboratories, Chantilly, Va.) and incubated at 22° C. for 0, 15, 30, 45, and 60 minutes. […]
Wrapped Inotech glass fiber filters were placed for 4-18 hours on a Molecular Dynamics Phosphor Screen. The amount of radioactivity on the filter was determined using a Molecular Dynamics Phosphor Imager Model Sl. […]

Neurospora crassa wild type (1,3)β-glucan synthase (crude extract), sequence (Q7S0A7 1-1955): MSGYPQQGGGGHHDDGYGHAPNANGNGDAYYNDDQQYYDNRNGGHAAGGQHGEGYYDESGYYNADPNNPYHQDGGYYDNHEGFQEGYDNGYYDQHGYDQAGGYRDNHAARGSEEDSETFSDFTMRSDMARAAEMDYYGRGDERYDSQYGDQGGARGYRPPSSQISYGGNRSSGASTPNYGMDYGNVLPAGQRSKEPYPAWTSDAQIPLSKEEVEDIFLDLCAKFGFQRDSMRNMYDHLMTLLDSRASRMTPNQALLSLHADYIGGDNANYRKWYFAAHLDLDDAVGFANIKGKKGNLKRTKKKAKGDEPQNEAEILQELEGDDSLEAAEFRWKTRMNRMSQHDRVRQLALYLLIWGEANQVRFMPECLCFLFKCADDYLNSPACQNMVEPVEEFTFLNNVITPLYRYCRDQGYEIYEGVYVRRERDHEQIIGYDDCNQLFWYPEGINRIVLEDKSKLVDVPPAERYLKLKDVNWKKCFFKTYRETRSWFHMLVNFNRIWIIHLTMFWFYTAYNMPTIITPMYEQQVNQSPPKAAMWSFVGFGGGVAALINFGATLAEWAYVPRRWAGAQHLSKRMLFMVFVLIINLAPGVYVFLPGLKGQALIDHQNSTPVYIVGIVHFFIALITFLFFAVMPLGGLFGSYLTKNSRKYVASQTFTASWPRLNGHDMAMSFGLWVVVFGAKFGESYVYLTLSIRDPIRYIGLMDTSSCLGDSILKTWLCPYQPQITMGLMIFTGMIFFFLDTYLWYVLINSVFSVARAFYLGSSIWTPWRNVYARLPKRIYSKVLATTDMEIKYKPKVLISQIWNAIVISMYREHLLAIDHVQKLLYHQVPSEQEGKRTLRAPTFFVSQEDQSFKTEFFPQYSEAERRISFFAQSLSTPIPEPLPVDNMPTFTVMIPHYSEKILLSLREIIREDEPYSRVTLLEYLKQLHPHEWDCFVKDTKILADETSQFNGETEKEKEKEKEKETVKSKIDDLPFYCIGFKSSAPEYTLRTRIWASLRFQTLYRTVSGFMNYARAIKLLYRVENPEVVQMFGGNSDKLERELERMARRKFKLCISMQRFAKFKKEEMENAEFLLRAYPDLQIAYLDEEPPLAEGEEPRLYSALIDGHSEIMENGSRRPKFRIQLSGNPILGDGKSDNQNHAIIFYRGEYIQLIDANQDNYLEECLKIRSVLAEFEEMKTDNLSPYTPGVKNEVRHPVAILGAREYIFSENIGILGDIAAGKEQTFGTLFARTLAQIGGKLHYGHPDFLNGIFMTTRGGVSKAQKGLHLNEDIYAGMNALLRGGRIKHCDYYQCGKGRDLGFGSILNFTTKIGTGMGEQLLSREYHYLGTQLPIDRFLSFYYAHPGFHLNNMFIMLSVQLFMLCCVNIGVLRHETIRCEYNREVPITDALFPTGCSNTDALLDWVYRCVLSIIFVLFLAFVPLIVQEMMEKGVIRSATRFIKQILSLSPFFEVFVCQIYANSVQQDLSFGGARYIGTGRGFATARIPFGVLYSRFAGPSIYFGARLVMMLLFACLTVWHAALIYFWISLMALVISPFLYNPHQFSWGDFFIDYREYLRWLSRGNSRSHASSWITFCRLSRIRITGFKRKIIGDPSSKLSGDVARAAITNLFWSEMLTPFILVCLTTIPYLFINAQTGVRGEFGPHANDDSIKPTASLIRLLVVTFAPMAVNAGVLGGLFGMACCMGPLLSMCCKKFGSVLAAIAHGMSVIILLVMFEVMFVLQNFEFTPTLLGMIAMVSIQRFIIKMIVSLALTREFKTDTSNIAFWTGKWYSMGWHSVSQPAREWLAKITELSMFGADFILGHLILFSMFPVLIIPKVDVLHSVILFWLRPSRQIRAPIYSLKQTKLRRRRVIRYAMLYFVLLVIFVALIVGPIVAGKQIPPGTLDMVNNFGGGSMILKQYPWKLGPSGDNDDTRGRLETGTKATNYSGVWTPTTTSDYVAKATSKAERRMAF
Neurospora crassa wild type (1,3)β-glucan synthase (crude extract), sequence (Q7RXU8 1-195 partner): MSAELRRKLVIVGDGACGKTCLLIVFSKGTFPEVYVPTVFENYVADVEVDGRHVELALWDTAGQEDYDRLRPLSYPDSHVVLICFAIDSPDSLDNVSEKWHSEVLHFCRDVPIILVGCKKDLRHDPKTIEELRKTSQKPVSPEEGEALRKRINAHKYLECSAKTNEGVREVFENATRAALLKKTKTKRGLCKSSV

O=C(O)C1(O)CC(O)C(O)C(O)C1 (single isomer, unassigned) [quinate, quinic acid]
inhibitory effect of quinate on (1,3)β-glucan synthase activity: did not show an inhibitory effect
